# Test results as given in article PMC10150366, “Discovery of an In Vivo Chemical Probe for BCL6 Inhibition by Optimization of Tricyclic Quinolinones” (Journal of Medicinal Chemistry, 2023).
# Values joined by “and” are separate entries in the source; they are usually repeats but may differ in a detail not shown here. Equal values may be shown once. Read-outs that look alike come from different tables or passages of the source.
# Assays:
# [1] = test system: Caco-2 human colon carcinoma cell line; settings: cited from earlier work
# [2] = cited from earlier work
# human BCL6 BTB domain = human BCL6 BTB domain (Homo sapiens, UniProt P41182); assay: BCL6 TR-FRET assay; format: binding; settings: for IC90: read-out: BCL6 TR-FRET IC90 Geometric Mean
# Protocol: 1. Supplementary experimental: protein production, purification and crystallography 1.1 BCL6 constructs used for assays and crystallography […]
# cleavage site. For the TR-FRET assay, the Trx-6His-HRV3C-BCL6 protein construct was used without cleaving the tag, as a 6His was needed to bind to the anti-6His-Terbium antibody. […]
# For both plasmid constructs described above, transformed BL21-AI E. coli cells were grown in LB media […]
# Expression was carried out at 18 °C for 18 hours. Cells were harvested by centrifugation (5500 g for 30 minutes at 4 °C) and stored at -80 °C.
# Cells were re-suspended in a buffer composed of 20 mM Tris pH 8, 250 mM NaCl, 1 mM MgCl2, 0.5 mM […]
# lysed by sonication followed by centrifugation at 21,000 g for 45 minutes at 4 °C. […]
# ResourceQ and gel filtration using a HiLoad 26/60 Superdex75 column in a buffer containing 20 mM HEPES […]
# The final protein was assessed for purity and molar mass by SDS-PAGE and high-resolution mass spectrometry, respectively.
# For the uncleaved Trx-6His-HRV3C-BCL6 protein construct to be used in TR-FRET, the protein was directly eluted from the HisTrap FF column without HRV-3C treatment, and submitted to Superdex75 gel filtration […]
# Test compounds in DMSO or DMSO alone […]
# concentration in 0.7% v/v DMSO final. […]
# BCL6 = settings: OCI-Ly1 cells, cited from earlier work
# [3] = target: T1, BCL6-SMRT (NCOR2) corepressor protein-protein interaction (Homo sapiens, UniProt P41182); assay: NanoBRET cellular assay (HEK293T); format: cell-based
# T1 construct: DNA encoding full length BCL6 and SMRT; expressed in transfected cells; host or cells: HEK293T
# Protocol: Test compounds in DMSO or DMSO alone
# concentration in 0.7% v/v DMSO final.
# (also called NCOR2) corepressor protein-protein interaction. DNA encoding full length BCL6 and SMRT
# fusion proteins BCL6-nanoLuc and SMRT-HaloTag, respectively. HEK293T cells were plated […] in T75
# At the time of assay, compounds
# dispensing (Labcyte Inc.). Frozen transfected HEK293T cells were thawed, centrifuged and freezing
# DMSO final concentration.
# After a short centrifugation the
# (1st emission filter) / 450-80 nm (2nd emission filter). The % inhibition at each test concentration was
# sigmoidal four-parameter logistic fit equation. […]
# [4] = Microsomal clearance, mouse liver microsomes; settings: one value given; mouse microsomal clearance per text
# [5] = HEK-293T, Table S2, several values per compound, read-out: BCL6 NanoBRET IC90 Geometric Mean
# [6] = HEK-293T, Table S2, read-out: BCL6 NanoBRET IC90 individual replicates
# [7] = HEK-293T, geometric mean of at least three replicates, read-out: NanoBRET IC90
# [8] = Table S2, several values per compound, read-out: BCL6 NanoBRET IC90 Geometric Mean
# [9] = geometric mean of at least three replicates, read-out: NanoBRET IC50
# [10] = single replicates, Table S2, read-out: BCL6 NanoBRET IC50 individual replicates
# [11] = Table S1, read-out: BCL6 TR-FRET pIC50 mean (converted)
# [12] = geometric mean of at least three replicates, read-out: BCL6 TR-FRET IC50
# [13] = supplement, read-out: BCL6 NanoBRET IC50 Geometric Mean
# [14] = Table S2, read-out: BCL6 NanoBRET pIC50 mean (converted)
# [15] = supplement, read-out: BCL6 TR-FRET IC50 Geometric Mean
Compound,"IC90 [3, 5]","IC90 [3, 6]",BCL6 NanoBRET pIC50 mean ([3]; Table S2),"IC50 [3, 9]","IC50 [3, 10]",IC90 (human BCL6 BTB domain; Table S1),IC50 (human BCL6 BTB domain; [12]),BCL6 TR-FRET pIC50 mean (human BCL6 BTB domain; Table S1),"IC50 [3, 13]","IC90 [3, 8]",IC50 (human BCL6 BTB domain; [11]),further results
C[C@H]1C[C@@H](O)CN(c2ncc(Cl)c(Nc3ccc4c(c3)c3c(c(=O)n4C)OCC(F)(F)[C@H](C4CC4)N3)n2)C1 [CCT373566],–,–,–,–,–,–,–,–,–,–,–,CACO-2 A-B [1]: 3.2e-06 cm/s; CACO-2 (ER) ([1]; efflux ratio): 13; Aq. Sol. [2]: 10 µM; IC50 (human BCL6 BTB domain; read-out: BCL6 TR-FRET IC50 Geometric Mean): 2.2 nM; MSD degrader assay [OCI-Ly1] Dmax (BCL6): 92%; DC50 (BCL6; read-out: MSD degrader assay [OCI-Ly1] DC50): 0.7 nM
"Cn1c(=O)c2c(c3cc(Nc4nc(N5C6CCC5COC6)ncc4Cl)ccc31)N[C@@H](C1CC1)C(F)(F)CO2 [compound 4, (S)-10-((2-(3-Oxa-8-azabicyclo[3.2.1]octan-8-yl)-5-chloropyrimidin-4-yl)amino)-2-cyclopropyl-3,3-difluoro-7-methyl-1,2,3,4-tetrahydro-[1,4]oxazepino[2,3-c]quinolin-6(7H)-one]",185 nM,142 nM,7.9696,10.7 nM and 11 nM,12.3 nM and 8.2 nM and 12.1 nM,10.2 nM,1.4 nM,–,–,101 nM and 154 nM,1.51 nM,"calculated free (unbound) cellular IC90 ([3]; HEK-293T, calculated free cellular IC90 from NanoBRET assay): 42 nM; IC90 [3, 7]: 143 nM"
"Cn1c(=O)c2c(c3cc(Nc4nc(N5CC6CCC(C5)O6)ncc4Cl)ccc31)N[C@@H](C1CC1)C(F)(F)CO2 [compound 5, (S)-10-((2-(8-Oxa-3-azabicyclo[3.2.1]octan-3-yl)-5-chloropyrimidin-4-yl)amino)-2-cyclopropyl-3,3-difluoro-7-methyl-1,2,3,4-tetrahydro-[1,4]oxazepino[2,3-c]quinolin-6(7H)-one]",–,98.7 nM,7.9026,12.5 nM,9.6 nM and 14.7 nM and 14 nM,19.9 nM,3 nM,8.527,–,–,–,–
"Cn1c(=O)c2c(c3cc(Nc4nc(N5C6COCC5CC(O)C6)ncc4Cl)ccc31)N[C@@H](C1CC1)C(F)(F)CO2 (stereo partly drawn) [compound 8, (S)-10-((5-Chloro-2-((1R,5S,7R)-7-hydroxy-3-oxa-9-azabicyclo[3.3.1]-nonan-9-yl)pyrimidin-4-yl)amino)-2-cyclopropyl-3,3-difluoro-7-methyl-1,2,3,4-tetrahydro-[1,4]oxazepino[2,3-c]quinolin-6(7H)-one]",–,–,–,–,–,7.6 nM,1.3 nM,–,–,–,1.31 nM,–
"Cn1c(=O)c2c(c3cc(Nc4nc(N5CC(C#N)C5)ncc4Cl)ccc31)N[C@@H](C1CC1)C(F)(F)CO2 [compound 12, (S)-1-(5-Chloro-4-((2-cyclopropyl-3,3-difluoro-7-methyl-6-oxo-1,2,3,4,6,7-hexahydro-[1,4]oxazepino[2,3-c]quinolin-10-yl)amino)pyrimidin-2-yl)azetidine-3-carbonitrile]",532 nM,385 nM,7.2623,55 nM,73.6 nM and 63.9 nM and 34.7 nM,46.6 nM,5 nM,8.3025,54.7 nM,398 nM and 270 nM,–,–
Cn1c(=O)c2c(c3cc(Nc4ccnc(Cl)c4C#N)ccc31)N[C@@H](C1CC1)C(F)(F)CO2 [compound 14],–,124 nM,7.9327,–,14.7 nM and 10.4 nM (2×),30.1 nM,4.8 nM,–,11.7 nM,–,3.95 nM,–
"(2S)-10-((2-(8-Acetyl-3,8-diazabicyclo[3.2.1]octan-3-yl)-5-chloropyrimidin-4-yl)amino)-2-cyclopropyl-3,3-difluoro-7-methyl-1,2,3,4-tetrahydro-[1,4]oxazepino[2,3-c]quinolin-6(7H)-one [compound 6]",–,–,7.57,26.9 nM,27 nM and 30 nM and 24.1 nM,4.6 nM,0.9 nM,9.0422,–,189 nM and 229 nM and 239 nM,–,"IC90 ([3]; Table S2, read-out: BCL6 NanoBRET IC90 individual replicates): 218 nM; CLint H/M/R [4]: 214 μLmin^-1mg^-1"

# Now from value to compound, other results behind:
"IC90 [3, 5]","IC90 [3, 6]",BCL6 NanoBRET pIC50 mean ([3]; Table S2),"IC50 [3, 9]","IC50 [3, 10]",IC90 (human BCL6 BTB domain; Table S1),IC50 (human BCL6 BTB domain; [12]),BCL6 TR-FRET pIC50 mean (human BCL6 BTB domain; Table S1),"IC50 [3, 13]",Compound,"IC90 [3, 8]",IC50 (human BCL6 BTB domain; [11]),further results
–,1620 nM,6.8258,149 nM,229 nM and 48.1 nM and 302 nM,45.4 nM,5.5 nM,8.2581,149 nM,"Cn1c(=O)c2c(c3cc(Nc4nc(N5CCC5)ncc4Cl)ccc31)N[C@@H](C1CC1)C(F)(F)CO2 [compound 9, (S)-10-((2-(Azetidin-1-yl)-5-chloropyrimidin-4-yl)amino)-2-cyclopropyl-3,3-difluoro-7-methyl-1,2,3,4-tetrahydro-[1,4]oxazepino[2,3-c]quinolin-6(7H)-one]",–,–,–
–,386 nM,–,38 nM,26 nM and 57.5 nM and 55.3 nM,34.1 nM,3.7 nM,–,–,"COC1CN(c2ncc(Cl)c(Nc3ccc4c(c3)c3c(c(=O)n4C)OCC(F)(F)[C@H](C4CC4)N3)n2)C1 [compound 10, (S)-10-((5-Chloro-2-(3-methoxyazetidin-1-yl)pyrimidin-4-yl)amino)-2-cyclopropyl-3,3-difluoro-7-methyl-1,2,3,4-tetrahydro-[1,4]oxazepino[2,3-c]quinolin-6(7H)-one]",–,3.93 nM,"IC50 [3, 14]: 43.6 nM"
–,175 nM,7.5086,31 nM,61.1 nM and 18.2 nM and 26.8 nM,85.4 nM,10 nM,–,–,"Cn1c(=O)c2c(c3cc(Nc4nc(N5CC(F)(F)C5)ncc4Cl)ccc31)N[C@@H](C1CC1)C(F)(F)CO2 [compound 11, (S)-10-((5-Chloro-2-(3,3-difluoroazetidin-1-yl)pyrimidin-4-yl)amino)-2-cyclopropyl-3,3-difluoro-7-methyl-1,2,3,4-tetrahydro-[1,4]oxazepino[2,3-c]quinolin-6(7H)-one]",–,–,"IC90 [3, 7]: 175 nM; IC50 (human BCL6 BTB domain; [15]): 10.3 nM"
–,444 nM,–,40 nM,56.7 nM and 28.4 nM and 87.3 nM,50.2 nM,5.7 nM,–,–,"Cn1c(=O)c2c(c3cc(Nc4nc(N5CC(F)C5)ncc4Cl)ccc31)N[C@@H](C1CC1)C(F)(F)CO2 [compound 13, (S)-10-((5-Chloro-2-(3-fluoroazetidin-1-yl)pyrimidin-4-yl)amino)-2-cyclopropyl-3,3-difluoro-7-methyl-1,2,3,4-tetrahydro-[1,4]oxazepino[2,3-c]quinolin-6(7H)-one]",–,6.2 nM,"IC50 [3, 14]: 52 nM"
639 nM,639 nM,6.8907,–,129 nM,158 nM,18.5 nM,7.7332,129 nM,"Cc1nccc(Nc2ccc3c(c2)c2c(c(=O)n3C)OCC(F)(F)[C@H](C3CC3)N2)c1Cl [compound 16, (S)-10-((3-chloro-2-methylpyridin-4-yl)amino)-2-cyclopropyl-3,3-difluoro-7-methyl-1,2,3,4-tetrahydro-[1,4]oxazepino[2,3-c]quinolin-6(7H)-one]",–,–,–
625 nM,616 nM,6.9685,108 nM,99.9 nM and 125 nM and 99.5 nM,201 nM,21 nM,7.6837,108 nM,"Cn1c(=O)c2c(c3cc(Nc4ccnc(Cl)c4F)ccc31)N[C@@H](C1CC1)C(F)(F)CO2 [compound 18, (S)-10-((2-chloro-3-fluoropyridin-4-yl)amino)-2-cyclopropyl-3,3-difluoro-7-methyl-1,2,3,4-tetrahydro-[1,4]oxazepino[2,3-c]quinolin-6(7H)-one]",511 nM and 732 nM,–,IC50 (human BCL6 BTB domain; [15]): 20.7 nM
